According to ChEMBL document CHEMBL4418479, “Diamino heterocyclic carboxamide compound” (2016):
The source made the active and inactive calls. The calls are words filed in the database; no cut-off is given here.

Key:
[1] = biological target: ALK tyrosine kinase receptor (Homo sapiens) (UniProt Q9UM73); settings: 5 nM
Description: Inhibition of N-terminal GST-tagged human ALK cytoplasmic domain (1058 to 1620 amino acids) expressed in baculovirus expression system at 5 nM relative to control

NCI-H2228 = assay: Antitumor activity against EML4-ALK fusion protein harboring human NCI-H2228 cells xenografted in NOD/SCID mouse assessed as inhibition of tumor growth at 1 mg/kg, po dosed once daily for 14 days starting 3 weeks of tumor cell inoculation and measured every other day relative to untreated control; assay type: functional
[2] = Antitumor activity against mouse NIH-3T3/EML4-ALK cells implanted in Balb/c mouse assessed as inhibition of tumor growth at 10 mg/kg, po dosed once daily for 5 days and measured every other day relative to untreated control; assay type: functional; settings: NIH3T3, po, 120 h, read-out: TGI
EML4-ALK [3] = biological target: EML4-ALK (Homo sapiens, UniProt Q9UM73); assay: Inhibition of recombinant FLAG-tagged EML4-ALK fusion protein (unknown origin) expressed in mouse BA/F3 cells using peptide substrate and ATP incubated for 1 hr by HTRF assay
EML4-ALK [4] = biological target: EML4-ALK (Homo sapiens, UniProt Q9UM73+Q9HC35); assay: Inhibition of recombinant FLAG-tagged EML4-ALK fusion protein (unknown origin) expressed in mouse BA/F3 cells assessed as inhibition of cell growth incubated for 2 days by alamar blue dye based assay
EML4-ALK (Homo sapiens, UniProt Q9UM73+Q9HC35), sequence (Q9UM73 whole entry, the tested form may be a part): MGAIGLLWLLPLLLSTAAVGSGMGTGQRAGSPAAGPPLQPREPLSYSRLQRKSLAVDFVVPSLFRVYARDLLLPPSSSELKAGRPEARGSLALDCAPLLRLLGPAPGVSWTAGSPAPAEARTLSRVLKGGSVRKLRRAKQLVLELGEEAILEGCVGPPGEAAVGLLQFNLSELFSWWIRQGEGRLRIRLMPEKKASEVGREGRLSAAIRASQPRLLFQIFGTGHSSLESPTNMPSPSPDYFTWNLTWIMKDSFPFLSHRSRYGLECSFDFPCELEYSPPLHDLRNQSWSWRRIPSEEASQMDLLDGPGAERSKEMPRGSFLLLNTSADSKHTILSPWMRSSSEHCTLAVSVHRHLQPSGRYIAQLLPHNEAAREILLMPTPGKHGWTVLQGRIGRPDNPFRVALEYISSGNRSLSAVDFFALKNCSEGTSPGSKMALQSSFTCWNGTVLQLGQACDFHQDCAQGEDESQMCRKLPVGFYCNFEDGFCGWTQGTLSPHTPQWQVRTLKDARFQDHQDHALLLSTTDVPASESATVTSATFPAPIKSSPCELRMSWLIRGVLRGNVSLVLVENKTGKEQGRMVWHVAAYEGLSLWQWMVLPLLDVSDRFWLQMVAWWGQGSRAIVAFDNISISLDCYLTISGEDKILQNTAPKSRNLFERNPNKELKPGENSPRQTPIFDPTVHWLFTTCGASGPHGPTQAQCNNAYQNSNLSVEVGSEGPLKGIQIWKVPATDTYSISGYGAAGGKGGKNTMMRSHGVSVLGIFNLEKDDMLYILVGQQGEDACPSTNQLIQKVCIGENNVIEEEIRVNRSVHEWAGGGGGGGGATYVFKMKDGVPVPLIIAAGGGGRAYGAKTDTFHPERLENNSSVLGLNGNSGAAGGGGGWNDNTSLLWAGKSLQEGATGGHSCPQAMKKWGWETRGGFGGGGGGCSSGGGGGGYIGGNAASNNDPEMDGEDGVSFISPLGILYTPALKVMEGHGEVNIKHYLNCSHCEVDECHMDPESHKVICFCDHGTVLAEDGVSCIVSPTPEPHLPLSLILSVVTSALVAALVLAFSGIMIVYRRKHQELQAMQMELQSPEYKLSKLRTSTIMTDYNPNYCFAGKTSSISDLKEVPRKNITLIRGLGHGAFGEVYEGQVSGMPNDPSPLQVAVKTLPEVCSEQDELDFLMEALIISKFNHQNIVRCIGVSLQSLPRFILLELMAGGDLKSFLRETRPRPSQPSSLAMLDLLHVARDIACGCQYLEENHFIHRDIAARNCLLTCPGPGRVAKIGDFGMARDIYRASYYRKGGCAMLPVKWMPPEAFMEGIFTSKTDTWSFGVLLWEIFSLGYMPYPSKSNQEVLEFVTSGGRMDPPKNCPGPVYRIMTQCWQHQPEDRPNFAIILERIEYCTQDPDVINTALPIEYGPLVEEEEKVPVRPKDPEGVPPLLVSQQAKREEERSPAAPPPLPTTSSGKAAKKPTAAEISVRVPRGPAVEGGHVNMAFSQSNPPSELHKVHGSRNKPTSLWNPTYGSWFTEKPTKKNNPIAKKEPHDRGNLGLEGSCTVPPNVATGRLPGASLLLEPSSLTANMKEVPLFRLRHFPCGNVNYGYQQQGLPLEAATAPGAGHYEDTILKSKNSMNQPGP
EML4-ALK (Homo sapiens, UniProt Q9UM73+Q9HC35), sequence (Q9HC35 whole entry, the tested form may be a part): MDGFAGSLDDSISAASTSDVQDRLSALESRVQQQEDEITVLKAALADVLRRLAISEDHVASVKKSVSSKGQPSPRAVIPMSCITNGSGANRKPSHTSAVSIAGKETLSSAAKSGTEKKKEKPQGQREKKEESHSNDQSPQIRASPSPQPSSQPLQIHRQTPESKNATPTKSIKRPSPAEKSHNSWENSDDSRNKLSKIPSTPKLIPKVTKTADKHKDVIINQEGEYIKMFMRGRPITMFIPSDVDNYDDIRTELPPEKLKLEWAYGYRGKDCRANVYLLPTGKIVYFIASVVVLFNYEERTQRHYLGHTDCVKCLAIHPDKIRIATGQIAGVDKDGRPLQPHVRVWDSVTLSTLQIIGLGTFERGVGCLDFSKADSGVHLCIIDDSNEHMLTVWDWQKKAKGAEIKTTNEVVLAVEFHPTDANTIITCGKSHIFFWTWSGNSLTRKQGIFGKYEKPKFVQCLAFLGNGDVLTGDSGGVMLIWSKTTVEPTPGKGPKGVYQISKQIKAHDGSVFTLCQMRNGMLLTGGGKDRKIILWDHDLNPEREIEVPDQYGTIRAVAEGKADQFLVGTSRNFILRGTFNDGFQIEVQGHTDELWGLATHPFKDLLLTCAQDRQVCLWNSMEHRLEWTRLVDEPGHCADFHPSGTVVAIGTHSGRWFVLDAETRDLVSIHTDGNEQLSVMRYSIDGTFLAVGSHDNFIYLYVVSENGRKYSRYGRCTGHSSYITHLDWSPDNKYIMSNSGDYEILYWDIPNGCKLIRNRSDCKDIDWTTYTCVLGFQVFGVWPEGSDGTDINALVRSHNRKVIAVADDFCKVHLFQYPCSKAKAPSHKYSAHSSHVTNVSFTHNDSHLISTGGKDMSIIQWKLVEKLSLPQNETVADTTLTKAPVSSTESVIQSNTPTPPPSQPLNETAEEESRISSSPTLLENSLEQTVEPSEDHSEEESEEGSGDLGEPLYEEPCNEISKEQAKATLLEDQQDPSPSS

ALK tyrosine kinase receptor (Homo sapiens), sequence (Q9UM73 19-1620 limits assumed): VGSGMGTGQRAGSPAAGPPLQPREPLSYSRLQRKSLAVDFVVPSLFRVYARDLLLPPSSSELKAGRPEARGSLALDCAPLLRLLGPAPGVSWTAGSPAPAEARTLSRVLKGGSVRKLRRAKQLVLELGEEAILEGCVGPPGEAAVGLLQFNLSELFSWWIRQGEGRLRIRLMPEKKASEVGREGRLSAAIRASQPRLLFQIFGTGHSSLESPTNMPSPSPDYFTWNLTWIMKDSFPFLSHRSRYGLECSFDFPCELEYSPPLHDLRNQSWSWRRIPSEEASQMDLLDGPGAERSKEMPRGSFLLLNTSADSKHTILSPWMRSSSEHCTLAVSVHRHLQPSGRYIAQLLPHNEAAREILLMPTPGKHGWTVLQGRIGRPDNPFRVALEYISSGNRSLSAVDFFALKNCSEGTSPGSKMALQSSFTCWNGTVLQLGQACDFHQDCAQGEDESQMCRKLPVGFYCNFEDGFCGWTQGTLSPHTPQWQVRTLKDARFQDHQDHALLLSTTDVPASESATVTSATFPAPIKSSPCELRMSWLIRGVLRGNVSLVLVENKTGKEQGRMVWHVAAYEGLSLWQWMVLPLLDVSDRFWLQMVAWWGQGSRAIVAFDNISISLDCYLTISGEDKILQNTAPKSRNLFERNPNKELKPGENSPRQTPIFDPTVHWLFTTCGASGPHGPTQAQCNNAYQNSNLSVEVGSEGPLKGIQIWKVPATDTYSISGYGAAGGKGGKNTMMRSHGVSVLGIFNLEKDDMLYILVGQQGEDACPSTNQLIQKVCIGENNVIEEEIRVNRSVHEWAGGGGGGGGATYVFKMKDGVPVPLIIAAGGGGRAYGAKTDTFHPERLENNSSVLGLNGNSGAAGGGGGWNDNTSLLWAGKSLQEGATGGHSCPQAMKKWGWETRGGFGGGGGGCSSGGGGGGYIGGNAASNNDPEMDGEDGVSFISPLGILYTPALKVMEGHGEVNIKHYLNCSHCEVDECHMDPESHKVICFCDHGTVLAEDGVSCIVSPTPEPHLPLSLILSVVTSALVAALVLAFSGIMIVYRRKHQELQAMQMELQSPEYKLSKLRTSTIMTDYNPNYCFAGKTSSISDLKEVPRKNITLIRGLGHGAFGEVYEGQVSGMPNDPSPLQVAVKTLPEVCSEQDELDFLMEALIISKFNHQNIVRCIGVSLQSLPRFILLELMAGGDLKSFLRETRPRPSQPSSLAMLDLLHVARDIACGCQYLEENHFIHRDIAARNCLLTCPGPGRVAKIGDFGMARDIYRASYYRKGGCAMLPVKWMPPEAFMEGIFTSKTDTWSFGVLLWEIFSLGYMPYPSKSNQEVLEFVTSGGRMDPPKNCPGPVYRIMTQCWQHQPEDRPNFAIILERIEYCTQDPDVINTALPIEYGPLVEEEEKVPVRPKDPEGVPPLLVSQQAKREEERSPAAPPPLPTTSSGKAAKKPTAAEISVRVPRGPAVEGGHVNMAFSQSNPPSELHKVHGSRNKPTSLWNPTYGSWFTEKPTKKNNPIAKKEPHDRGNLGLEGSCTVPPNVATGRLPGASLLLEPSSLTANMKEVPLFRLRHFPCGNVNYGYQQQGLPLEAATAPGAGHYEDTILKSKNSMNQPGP
EML4-ALK (Homo sapiens, UniProt Q9UM73), sequence (Q9UM73 whole entry, the tested form may be a part): as the sequence (Q9UM73 whole entry, the tested form may be a part) above
EML4-ALK (Homo sapiens, UniProt Q9UM73), sequence (Q9HC35 whole entry, further chain, the tested form may be a part): as the sequence (Q9HC35 whole entry, the tested form may be a part) above

| Compound | inhibition [1] [%] | other results |
| --- | --- | --- |
| CC(C)c1nc(C(N)=O)c(Nc2ccc(N3CCC(N4CCN(C)CC4)CC3)cc2)nc1NC1CCOCC1 | > 50 | inhibition in vivo at 1 mg/kg (NCI-H2228; read-out: TGI): 69% |
| NC(=O)c1cnc(N[C@@H]2CCCC[C@@H]2N)nc1Nc1ccc(-c2ccc(N3CCOCC3)cc2)cc1 (racemic) |  | TGI (NCI-H2228): inactive |
| CCc1nc(C(N)=O)c(Nc2cccc(C)c2)nc1NCCN(C)C |  | TGI (NCI-H2228): inactive |
| CCc1nc(C(N)=O)c(Nc2ccc(N3CCN(C4CCN(C)CC4)CC3)c(C)c2)nc1NC1CCOCC1 | > 50 |  |
| CCc1nc(C(N)=O)c(Nc2ccc(N3CCC(N4CCN(C)CC4)CC3)c(OC)c2)nc1NC1CCOCC1 | > 50 |  |
| CCc1nc(C(N)=O)c(Nc2ccc(N3CCC(N4CCN(C)CC4)CC3)c(C(F)(F)F)c2)nc1N[C@H]1CC[C@H](O)CC1 | > 50 | inhibition in vivo at 10 mg/kg [2]: 81% |
| CC(C)c1nc(C(N)=O)c(Nc2ccc(N3CCN(C)CC3)cc2)nc1N[C@H]1CC[C@H](O)CC1 | > 50 |  |
| CCc1nc(C(N)=O)c(Nc2ccc(N3CCC(N4CCN(C)CC4)CC3)c(C)c2)nc1N[C@H]1CC[C@](C)(O)CC1 | > 50 |  |
| CC(C)c1nc(C(N)=O)c(Nc2ccc(N3CCC(N4CCN(C)CC4)CC3)c(C(F)(F)F)c2)nc1N[C@H]1CC[C@H](O)CC1 | > 50 |  |
| CCc1nc(C(N)=O)c(Nc2ccc(N3CCC(N4CCN(C)CC4)CC3)c(C)c2)nc1NC1CCOCC1 | > 50 |  |
| CCc1nc(C(N)=O)c(Nc2ccc(N3CCC(N4CCN(C)CC4)CC3)c(C)c2)nc1N[C@H]1CC[C@](O)(CC)CC1 |  | IC50 (EML4-ALK [3]): 3.1 nM |
| COc1cc(Nc2nc(NC3CCOCC3)c(C(C)C)nc2C(N)=O)ccc1N1CCN(C)CC1 | > 50 | inhibition in vivo at 10 mg/kg [2]: 63% |
| CCc1nc(C(N)=O)c(Nc2ccc(N3CCC(N4CCN(C)CC4)CC3)c(C)c2)nc1N[C@H]1CC[C@@](O)(CC)CC1 |  | IC50 (EML4-ALK [3]): 2.8 nM |
| CCc1nc(C(N)=O)c(Nc2ccc(N3CCN(C)CC3)cc2)nc1N[C@H]1CC[C@H](O)CC1 | > 50 |  |
| CCc1nc(C(N)=O)c(Nc2ccc(N3CCN(C(C)C)CC3)c(C)c2)nc1N[C@H]1CC[C@H](O)CC1 | > 50 | inhibition in vivo at 10 mg/kg [2]: 81% |
| CCc1nc(C(N)=O)c(Nc2ccc(N3CCN(C)CC3)c(F)c2)nc1NC1CCOCC1 | > 50 |  |
| CCc1nc(C(N)=O)c(Nc2ccc(N3CCC(N4CCN(C)CC4)CC3)cc2)nc1NC1CCOCC1 | > 50 | inhibition in vivo at 10 mg/kg [2]: 79% |
| CCc1nc(C(N)=O)c(Nc2ccc(N3CCC(N4CCN(C)CC4)CC3)c(C)c2)nc1N[C@H]1CC[C@](O)(C(C)C)CC1 |  | IC50 (EML4-ALK [3]): 2.6 nM |
| Cc1cc(Nc2nc(N[C@H]3CC[C@H](O)CC3)c(Cl)nc2C(N)=O)ccc1N1CCC(N2CCN(C)CC2)CC1 | > 50 |  |
| CC(C)c1nc(C(N)=O)c(Nc2ccc(N3CCN(C)CC3)cc2)nc1NC1CCOCC1 | > 50 |  |
| CCc1nc(C(N)=O)c(Nc2ccc(N3CCC(N4CCN(C)CC4)CC3)c(C)c2)nc1N[C@H]1CC[C@H](O)CC1 | > 50 | inhibition in vivo at 10 mg/kg [2]: 92% |
| CCc1nc(C(N)=O)c(Nc2ccc(N3CCC(N4CCN(C)CC4)CC3)cc2)nc1N[C@H]1CC[C@H](O)CC1 | > 50 |  |
| CCc1nc(C(N)=O)c(Nc2ccc3cnn(C)c3c2)nc1N[C@H]1CC[C@H](O)CC1 |  | IC50 (EML4-ALK [4]): 76 nM |
| CCc1nc(C(N)=O)c(Nc2ccc(N3CCC(N4CCN(C)CC4)CC3)c(C)c2)nc1N[C@H]1CC[C@@](C)(O)CC1 | > 50 |  |
| CCc1nc(C(N)=O)c(Nc2ccc(N3CCC(N4CCN(C)CC4)CC3)c(C)c2)nc1N[C@H]1CC[C@@](O)(C(C)C)CC1 |  | IC50 (EML4-ALK [3]): 4.1 nM |
